Values of other authors in US20150099751A1, “IN SITU GEL LOADED WITH PHOSPHODIESTERASE TYPE V INHIBITORS NANOEMULSION” (KING ABDULAZIZ UNIVERSITY, priority 2013, published 2015).

Key:
[1] = tested on: isolated human corpus cavernosum; conditions: at the recommended doses
[2] = tested on: male lower urinary tract syndrome (LUTS); conditions: after 12 weeks of treatment
[3] = administration by mouth (orally)

CCCc1nn(C)c2c(=O)[nH]c(-c3cc(S(=O)(=O)N4CCN(C)CC4)ccc3OCC)nc12 [Sildenafil, 1[4ethoxy3(6.7dihydro1methyl7oxo3propyl1Hpyrazolo [4,3d]pyrimidin5yl)phenylsulfonyl]4methylpiperazine]
direct relaxant effect on the isolated human corpus cavernosum [1]: no direct relaxant effect
International Prostate Symptom Score (IPSS) and LUTS-specific quality of life (QoL) score [2]: overall improvement
bioavailability [3]: approximately 40%
